Assay results taken from the NIST ThermoML archive (doi:10.1021/je2000606).

Columns and labels:
[1] = xn = mol fraction of the nth substance listed; settings: 101 kPa, Liquid
[2] = refractive index (Na D-line) (dimensionless); xn = mol fraction of the nth substance listed; settings: 101 kPa, Liquid
[3] = 101.33 kPa, Liquid; for viscosity: Falling or rolling sphere viscometry; for mass density: Vibrating tube method
[4] = refractive index (Na D-line) (dimensionless); settings: 101.33 kPa, Liquid, Standard Abbe refractometry

CCCCn1cc[n+](C)c1.C[C@H](N)C(=O)[O-] [3-butyl-1-methyl-1H-imidazolium L-alaninate] + CO
Settings	mass density, [1] [kg/m3]	refractive index, [2]	viscosity, [1] [mPa·s]
298.15 K, x1 = 0.0986	906.31	1.3952	1.824
298.15 K, x1 = 0.2015	968.55	1.438	2.979
298.15 K, x1 = 0.2837	998.11	1.4595	4.892
298.15 K, x1 = 0.3985	1024.98	1.4787	8.963
298.15 K, x1 = 0.5105	1042.62	1.4914	15.2
298.15 K, x1 = 0.6035	1053.47	1.4994	22.23
298.15 K, x1 = 0.7011	1062.38	1.5058	31.13
298.15 K, x1 = 0.8152	1070.44	1.5111	45.03
298.15 K, x1 = 0.9139	1076	1.5147	60.33
303.15 K, x1 = 0.0986	901.65	1.3926	1.753
303.15 K, x1 = 0.2015	963.93	1.435	2.76
303.15 K, x1 = 0.2837	993.59	1.4564	3.714
303.15 K, x1 = 0.3985	1020.56	1.4755	6.403
303.15 K, x1 = 0.5105	1038.31	1.4883	10.73
303.15 K, x1 = 0.6035	1049.27	1.4964	16.01
303.15 K, x1 = 0.7011	1058.3	1.5029	22.63
303.15 K, x1 = 0.8152	1066.5	1.5087	32.91
303.15 K, x1 = 0.9139	1072.2	1.5126	45.02
308.15 K, x1 = 0.0986	896.59	1.3901	1.829
308.15 K, x1 = 0.2015	959.34	1.4323	2.349
308.15 K, x1 = 0.2837	989.32	1.4533	3.429
308.15 K, x1 = 0.3985	1016.81	1.4723	5.513
308.15 K, x1 = 0.5105	1034.85	1.485	9.168
308.15 K, x1 = 0.6035	1046.07	1.493	13.4
308.15 K, x1 = 0.7011	1055.34	1.5	18.29
308.15 K, x1 = 0.8152	1063.85	1.5059	26.27
308.15 K, x1 = 0.9139	1069.71	1.5105	35.3
313.15 K, x1 = 0.0986	892.46	1.3881	1.34
313.15 K, x1 = 0.2015	955.28	1.4297	2.113
313.15 K, x1 = 0.2837	985.35	1.4502	2.792
313.15 K, x1 = 0.3985	1012.89	1.4692	5.197
313.15 K, x1 = 0.5105	1031.1	1.4817	8.3
313.15 K, x1 = 0.6035	1042.42	1.4898	11.91
313.15 K, x1 = 0.7011	1051.82	1.497	15.87
313.15 K, x1 = 0.8152	1060.49	1.5034	21.92
313.15 K, x1 = 0.9139	1066.51	1.5082	29.18

CCCCn1cc[n+](C)c1.C[C@H](N)C(=O)[O-] [3-butyl-1-methyl-1H-imidazolium L-alaninate]
Settings	mass density, [3] [kg/m3]	refractive index, [4]	viscosity, [3] [mPa·s]
298.15 K	1080.2	1.5184	78.3
303.15 K	1076.5	1.5168	59.77
308.15 K	1074.2	1.5153	47.03
313.15 K	1071.1	1.5135	37.95

CO [methanol]
Settings	mass density, [3] [kg/m3]	refractive index, [4]	viscosity, [3] [mPa·s]
298.15 K	786.4	1.3266	0.532
303.15 K	782.2	1.3243	0.515
308.15 K	776.7	1.3224	0.465
313.15 K	772.9	1.3208	0.441

CCCCn1cc[n+](C)c1.C[C@H](N)C(=O)[O-] [3-butyl-1-methyl-1H-imidazolium L-alaninate] + OCc1ccccc1
Settings	mass density, [1] [kg/m3]	refractive index, [2]	viscosity, [1] [mPa·s]
298.15 K, x1 = 0.1012	1052.86	1.5355	6.989
298.15 K, x1 = 0.1939	1059.8	1.534	8.647
298.15 K, x1 = 0.3103	1066.02	1.532	11.9
298.15 K, x1 = 0.3971	1069.57	1.5304	14.7
298.15 K, x1 = 0.4864	1072.4	1.5287	18.75
298.15 K, x1 = 0.6015	1075.14	1.5264	26.24
298.15 K, x1 = 0.6945	1076.58	1.5245	34.42
298.15 K, x1 = 0.8015	1077.73	1.5223	46.72
298.15 K, x1 = 0.9026	1078.72	1.5203	61.33
303.15 K, x1 = 0.1012	1048.56	1.5333	5.691
303.15 K, x1 = 0.1939	1055.61	1.5319	6.738
303.15 K, x1 = 0.3103	1061.88	1.53	9.274
303.15 K, x1 = 0.3971	1065.49	1.5285	11.46
303.15 K, x1 = 0.4864	1068.42	1.5268	14.62
303.15 K, x1 = 0.6015	1071.16	1.5246	20.5
303.15 K, x1 = 0.6945	1072.71	1.5227	26.62
303.15 K, x1 = 0.8015	1073.95	1.5206	35.94
303.15 K, x1 = 0.9026	1074.98	1.5186	46.96
308.15 K, x1 = 0.1012	1045.09	1.5308	4.951
308.15 K, x1 = 0.1939	1052.25	1.5295	5.953
308.15 K, x1 = 0.3103	1058.75	1.5277	7.695
308.15 K, x1 = 0.3971	1062.51	1.5263	9.977
308.15 K, x1 = 0.4864	1065.53	1.5247	12.61
308.15 K, x1 = 0.6015	1068.43	1.5226	17.36
308.15 K, x1 = 0.6945	1070.11	1.5209	22.13
308.15 K, x1 = 0.8015	1071.46	1.5189	29.01
308.15 K, x1 = 0.9026	1072.58	1.517	36.89
313.15 K, x1 = 0.1012	1041.62	1.5286	4.28
313.15 K, x1 = 0.1939	1048.77	1.5273	5.515
313.15 K, x1 = 0.3103	1055.35	1.5256	7.175
313.15 K, x1 = 0.3971	1059.07	1.5242	8.904
313.15 K, x1 = 0.4864	1062.18	1.5227	11.02
313.15 K, x1 = 0.6015	1065.2	1.5206	15.01
313.15 K, x1 = 0.6945	1066.87	1.5189	18.65
313.15 K, x1 = 0.8015	1068.31	1.517	24.47
313.15 K, x1 = 0.9026	1069.52	1.5152	30.69

OCc1ccccc1 [benzenemethanol]
Settings	mass density, [3] [kg/m3]	refractive index, [4]	viscosity, [3] [mPa·s]
298.15 K	1041.64	1.5371	5.55
303.15 K	1037.42	1.5349	4.675
308.15 K	1033.84	1.5323	4.01
313.15 K	1030.43	1.5301	3.522
